Assay results as given in EPA's CvTdb concentration-time database.

Legend:
[1] = system: Rat; experiment: concentration in plasma after dosing; settings: dosed: Nitrite, 80 mg/kg, oral, Female, F344
[2] = system: Rat; experiment: concentration in plasma after dosing; settings: dosed: Nitrite
[3] = system: Rat; experiment: concentration in plasma after dosing; settings: 2 min; dosed: Nitrite; 40 mg/kg; oral; Female; F344
[4] = system: Rat; experiment: concentration in plasma after dosing; settings: 0.5 h; dosed: Nitrite; 20 mg/kg; iv; Male; F344
[5] = system: Rat; experiment: concentration in plasma after dosing; settings: dosed: Nitrite, 20 mg/kg, iv, Male, F344
[6] = system: rat; experiment: amount in urine after dosing (umol); settings: inhalation, duration: 4 hr, F344 (Harlan Winkelmann)

O=N[O-] [Nitrite]
concentration in plasma [ng/mL]
Settings | 0.75 h | 1 h | 2 h | 2 min
[1] | – | 8100 | 6800 | –
[5] | 4000 | – | – | 2000

concentration in plasma [ng/mL], [2]
Settings | Female | Male
0.5 h, 20 mg/kg, iv, F344 | – | 2600
0.5 h, 40 mg/kg, oral, F344 | 6000 | 1900
0.5 h, 80 mg/kg, oral, F344 | 11300 | –
0.75 h, 20 mg/kg, iv, F344 | – | 2400
1 h, 20 mg/kg, iv, F344 | – | 2000
1 h, 40 mg/kg, oral, F344 | 2900 | 3400
1 h, 80 mg/kg, oral, F344 | 9700 | –
2 h, 40 mg/kg, oral, F344 | 2600 | –
2 h, 80 mg/kg, oral, F344 | 7500 | –
2 min, 20 mg/kg, iv, F344 | – | 14800
2 min, 40 mg/kg, oral, F344 | 3100 | –
2 min, 40 mg/kg, oral, Harlan Sprague-Dawley | 2200 | –
2 min, 80 mg/kg, oral, F344 | 8200 | –
4 h, 80 mg/kg, oral, F344 | 2400 | –
5 min, 20 mg/kg, iv, F344 | – | 3100
5 min, 40 mg/kg, oral, F344 | 4800 | –
5 min, 40 mg/kg, oral, Harlan Sprague-Dawley | 1700 | –
5 min, 80 mg/kg, oral, F344 | 12400 | –
6 h, 80 mg/kg, oral, F344 | 2000 | –
8 h, 80 mg/kg, oral, F344 | 1700 | –
10 h, 80 mg/kg, oral, F344 | 1700 | –
10 min, 20 mg/kg, iv, F344 | – | 4300
10 min, 40 mg/kg, oral, F344 | 5900 | 3400
10 min, 40 mg/kg, oral, Harlan Sprague-Dawley | 2500 | –
10 min, 80 mg/kg, oral, F344 | 7500 | –
20 min, 20 mg/kg, iv, F344 | – | 900

Settings | concentration in plasma [ng/mL]
[3] | 1900
[4] | 8100

CC(C)(C)O [tert-butyl alcohol]
[6]
Settings | amount in urine
5.904 h, dosed: methyl tert-butyl ether, 38.7 ppm | 0.773
5.97 h, dosed: ethyl tert-butyl ether, 40.6 ppm | 0.601
11.88 h, dosed: methyl tert-butyl ether, 38.7 ppm | 0.347
11.92 h, dosed: ethyl tert-butyl ether, 40.6 ppm | 0.254
11.96 h, dosed: methyl tert-butyl ether, 4.5 ppm | 0.24
17.95 h, dosed: methyl tert-butyl ether, 4.5 ppm | 0.076
17.97 h, dosed: methyl tert-butyl ether, 38.7 ppm | 0.126
17.99 h, dosed: ethyl tert-butyl ether, 40.6 ppm | 0.187
23.91 h, dosed: methyl tert-butyl ether, 4.5 ppm | 0.0671
23.93 h, dosed: methyl tert-butyl ether, 38.7 ppm | 0.0789
23.94 h, dosed: ethyl tert-butyl ether, 40.6 ppm | 0.0668
29.91 h, dosed: methyl tert-butyl ether, 38.7 ppm | 0.0315
29.93 h, dosed: ethyl tert-butyl ether, 40.6 ppm | 0.0668
29.96 h, dosed: methyl tert-butyl ether, 4.5 ppm | 0.083
